Laboratory results as given in PMC10923054, “Antiplasmodial peptaibols act through membrane directed mechanisms” (Cell Chemical Biology, 2024).
Like-named read-outs stand apart in the source and are kept apart here. Square brackets hold non-standard residues; d marks the D form. Peptide text beside a SMILES is read from it. Phe(ol) = N[C@H](CO)Cc1ccccc1; Leu(ol) = CC(C)C[C@H](N)CO; dIva = CC[C@@](C)(N)C(=O)O; Aib = CC(C)(N)C(=O)O

Experiments:
P. falciparum Dd2 [1] = experiment: Phenotypic screen: asexual blood stage EC50 determination (SYBR Green I); format: cell-based; conditions: asynchronous culture, 1% parasitemia, 1% hematocrit, 72 h, SYBR Green I; mean ± SEM, biological triplicate
Protocol: Asexual blood stage parasites grown in the Chakrabarti laboratory were cultured based on a protocol by Trager and Jensen[57] with some modifications.[35] Culture was maintained at 4% hematocrit with human A+ whole blood obtained from the Florida OneBlood, in RPMI 1640 supplemented with 25 mM HEPES pH 7.4, 26 mM NaHCO3, 2% dextrose, 15 mg/L hypoxanthine, 25 mg/L gentamycin, and 0.5% Albumax II. Incubator conditions remained at 37°C and 5% CO2, 5% O2, 90% N2, or 95% air. For comparison screening using serum vs Albumax II, culture media was changed from RPMI with 0.5% Albumax II to RPMI with 10% human serum and maintained for a minimum of 2 weeks prior to assay use.
(§1) Inhibitor EC50 determination in 3D7 and Dd2 was performed as discussed in,[35] based on established protocols.[60] Assays utilized asynchronous culture at 1% parasitemia, 1% hematocrit. Culture was incubated with compound dilutions for 72 h followed by freezing at −80°C to promote lysis, then thawing and incubation for 45 min–1 h with 1× SYBR Green I in a lysis buffer (20 mM Tris-HCL, 0.08% saponin, 5 mM EDTA, and 0.8% Triton X-100). Fluorescence was read 485 nm excitation, 530 nm emission on a Synergy Neo2 multimode reader (BioTek Winsooki, VT) and EC50 curves were generated using CDD Vault (https://www.collaborativedrug.com/).

red blood cell (RBC) = experiment: Percent hemolysis determination; format: cell-based, human; conditions: for hemolysis at 25 μM: RBCs in PBS, 1% hematocrit, 1 h, 37°C, absorbance 550 nm, 0.01% saponin control, biological triplicate; for Hemolytic Potential: Figure 7A summary; for Hemolytic Potential: key: -: A '–' indicates a negative finding; a single '+' indicates a positive finding; a double '++' indicates a strong positive finding
Protocol: Hemolysis assay performed as outlined in Duvall et al. with some modifications.[63] Whole blood was first washed and resuspended in PBS to isolate RBCs. Compound was then added in serial dilutions to PBS with 1% hematocrit, with vehicle or 0.01% saponin used as controls. Plates were incubated for 1 h at 37°C then centrifuged for 10 min at 900 x g. Supernatant was then transferred to a clear plate and absorbance was read at 550 nm. Extended incubation with compound (up to 3 days) was performed during assay optimization, with no changes noted in percent hemolysis.

[2] = tested on: P. berghei liver stage parasites in HepG2 cells; experiment: High content imaging P. berghei liver stage assay (luciferase 48 HPI, MSP1/AMA1 72 HPI, HepG2 area); format: cell-based; conditions: for Liver stage inhibition: Figure 7A summary
Protocol: HepG2 cells infected with luciferase-expressing P. berghei sporozoites were seeded onto compound-loaded 384-well plates 2 hours after sporozoite addition. A live luciferase readout at 48 HPI[62] quantifies compound activity against parasite biomass, while HCI of MSP1 and AMA1 expression at 72 HPI quantifies effects on liver stage maturation and hepatic merozoite formation. Compound effects on hepatocytes are assessed based on HepG2 area occupied in the 72 HPI HCI assay. All data are normalized to in-plate DMSO controls.

asynchronous Dd2 culture = experiment: Killing profile (flow cytometry, SYBR Green I / Mitotracker Deep Red FM); format: cell-based, P. falciparum; conditions: for Killing Profile: 10 x EC50
Protocol: Killing profile analyses were performed as previously described,[64] in asynchronous Dd2 culture, starting at approximately 1% parasitemia, 4% hematocrit. Compound was added to culture in majority ring stage and incubated for 12, 24, or 48 h prior to washing and sample collection. Media were then changed normally every 24 h for 6 days. Samples taken each day were used for Giemsa thin smears, and flow cytometric analysis to monitor parasitemia and mitotracker retention. For staining, samples were incubated in a solution of 1:1000 SYBR Green I and 0.6 μM Mitotracker Deep red FM for 30 min then read on a CytoFLEX S (Beckman Coulter, Brea, CA), with 100,000 events recorded per sample. Flow cytometry was gated in FlowJo Version 10 using DHA, vehicle, no Mitotracker, and uninfected RBC controls. Assay workflow outline was created using BioRender.

[3] = tested on: synchronized Dd2 parasites; experiment: Synchronous stage specificity assay (SSA); format: cell-based, P. falciparum; conditions: for stage of parasite arrest when added at 6 HPI: 5 x EC50 (TC HA-II 3 x EC50), Giemsa and YOYO-1 flow cytometry; for Stage of Inhibition: Figure 7A summary
Protocol: SSA was performed in triplicate as previously described.[64] In summary, Dd2 culture was synchronized by combination of MACS column[65] and sorbitol treatment,[66] and cultured at 1% parasitemia, 2% hematocrit, for 54 h. Compound was added at approximately 6, 18, 30, or 42 HPI, and samples were taken every 12 h after treatment times for Giemsa staining and flow cytometric analysis. HZ NPDG-H and HZ NPDG-I were tested at 5 x EC50, TC HA-II tested at 3 x EC50 due to its higher hemolytic potential. All test values above EC90. Flow samples were fixed in 4% paraformaldehyde, incubated for 30 min at 37°C, then washed 3 times in PBS. Fixed samples were stored at 4°C prior to staining, then resuspended in 0.25% Trition X-100 and incubated for 10 min with shaking. Permeabilized samples were centrifuged and resuspended in a 50 μg/mL RNase solution, and incubated for 3 h at 37°C. After centrifugation, samples were resuspended in a YOYO-1 solution (500 nM final concentration) and read on a CytoFLEX S (Beckman Coulter, Brea, CA) at 488 nm excitation, with 100,000–500,000 events recorded per sample. Infected RBCs were gated using an uninfected RBC control in FlowJo version 10. After gating populations, FITC channel values were extracted from FlowJo and the sum total fluorescence of the iRBCs and the median fluorescence for each timepoint were graphed in Graph Pad Prism Version 9. Assay workflow outline was created using BioRender.

[4] = tested on: P. falciparum asexual blood stage parasites grown in 0.5% Albumax II; experiment: Antiplasmodial activity with Albumax II media; format: cell-based; conditions: RPMI with 0.5% Albumax II; mean ± SEM from 3 biological replicates
Protocol: Asexual blood stage parasites grown in the Chakrabarti laboratory were cultured based on a protocol by Trager and Jensen[57] with some modifications.[35] […] For comparison screening using serum vs Albumax II, culture media was changed from RPMI with 0.5% Albumax II to RPMI with 10% human serum and maintained for a minimum of 2 weeks prior to assay use.
as §1

P. falciparum Dd2 [5] = tested on: P. falciparum Dd2; design: method as in PMID: 33565879; conditions: asynchronous culture, 1% parasitemia, 1% hematocrit, 72 h, SYBR Green I; mean ± SEM, biological triplicate; ref PMID: 33565879; cited from earlier work
Description: Arrow length represents correlation strength. Arrow direction indicates positive/negative correlation. Peptaibols color-coded based on type. See also Figure S1. […] Values represent mean ± SEM. Resistance index (RI) = Dd2 EC50/3D7 EC50, Selectivity index (SI) = HepG2 EC50/Dd2 EC50.

[6] = 10 x EC50, monitored for 6 days, 3 biological replicates

Structure (SMILES)	EC50 (P. falciparum Dd2 [1])	hemolysis at 25 μM (red blood cell (RBC))	Hemolytic Potential (red blood cell (RBC))	Liver stage inhibition [2]	luciferase inhibition at 48 HPI (liver stage HCI) ([2]; tested at 5 and 0.5 μM)	Killing Profile (asynchronous Dd2 culture)	parasitemia after 12 h incubation and washout (asynchronous Dd2 culture; [6])	stage of parasite arrest when added at 6 HPI [3]	Stage of Inhibition [3]	parasitemia after 48 h incubation and washout (asynchronous Dd2 culture; [6])	Killing Profile (asynchronous Dd2 culture; listed as Harzianin NPDG H)	EC50 [4]	EC50 (P. falciparum Dd2 [5])
CC(=O)NC(C)(C)C(=O)N1CCC[C@H]1C(=O)NC(C)(C)C(=O)N[C@@H](C)C(=O)NC(C)(C)C(=O)N[C@@H](C)C(=O)N[C@@H](CCC(N)=O)C(=O)NC(C)(C)C(=O)N[C@H](C(=O)NC(C)(C)C(=O)NCC(=O)N[C@@H](CC(C)C)C(=O)NC(C)(C)C(=O)N1CCC[C@H]1C(=O)N[C@H](C(=O)NC(C)(C)C(=O)NC(C)(C)C(=O)N[C@@H](CCC(=O)O)C(=O)N[C@@H](CCC(N)=O)C(=O)N[C@H](CO)Cc1ccccc1)C(C)C)C(C)C [Alamethicin, reference compound] (Ac-[Aib]P[Aib]A[Aib]AQ[Aib]V[Aib]GL[Aib]PV[Aib][Aib]EQ[Phe(ol)]; N-terminus assumed)	630 ± 50 nM	73%											
CC[C@@](C)(NC(=O)C(C)(C)NC(=O)[C@H](CC(C)C)NC(=O)[C@@H]1CCCN1C(=O)C(C)(C)NC(=O)[C@H](CC(C)C)NC(=O)CNC(=O)C(C)(C)NC(=O)[C@@H](NC(=O)C(C)(C)NC(=O)[C@H](CCC(N)=O)NC(=O)C(C)(C)NC(=O)C(C)(C)NC(=O)[C@H](C)NC(=O)CNC(=O)C(C)(C)NC(C)=O)C(C)C)C(=O)N[C@@H](CCC(N)=O)C(=O)N[C@H](CO)CC(C)C [TC HA-II, trichorzin HA II] (Ac-[Aib]GA[Aib][Aib]Q[Aib]V[Aib]GL[Aib]PL[Aib][dIva]Q[Leu(ol)])		53%	+	Maturation and replication	showed luciferase inhibition	Rapid	inhibit parasitemia for all 6 days	early arrest with a condensed permatroph morphology	Ring				
CC[C@H](C)[C@H](NC(=O)[C@H](C)NC(=O)[C@@H]1CCCN1C(=O)C(C)(C)NC(=O)[C@H](CC(C)C)NC(=O)[C@H](CCC(N)=O)NC(=O)[C@@](C)(CC)NC(C)=O)C(=O)NC(C)(C)C(=O)N1CCC[C@H]1C(=O)N[C@](C)(CC)C(=O)N[C@@H](CC(C)C)C(=O)NC(C)(C)C(=O)N1CCC[C@H]1C(=O)N[C@H](CO)CC(C)C [HZ NPDG-H, harzianin NPDG H] (Ac-[dIva]QL[Aib]PAI[Aib]P[dIva]L[Aib]P[Leu(ol)])			-	Maturation only		cytostatic	recovered by day 3	late trophozoite to early schizont stage	Schizont	increase in parasitemia at day 5	Slow	330 ± 90 nM	330 ± 90 nM
CC[C@H](C)[C@H](NC(=O)[C@H](CC(C)C)NC(=O)[C@H](CCC(N)=O)NC(=O)[C@@](C)(CC)NC(C)=O)C(=O)NC(C)(C)C(=O)N1CCC[C@H]1C(=O)N[C@](C)(CC)C(=O)N[C@@H](CC(C)C)C(=O)NC(C)(C)C(=O)N1CCC[C@H]1C(=O)N[C@H](CO)CC(C)C [HZ NPDG-I, harzianin NPDG I] (Ac-[dIva]QLI[Aib]P[dIva]L[Aib]P[Leu(ol)])			-	Maturation only		Rapid	inhibit parasitemia for all 6 days	arrest parasite development in early ring	Ring			100 ± 10 nM	100 nM
